These are literature values, as cited in patent US11033578B2, “Nutritional supplement for growth enhancement” (Nutritional Growth Solutions LTD, priority 2013, dated 2021).

One series concerns children. The note with it: meta analysis; 95% CI: 0.46, 2.51.
In series [1] the test system is initially stunted infants. The note with it: daily syrup for six months; vs placebo.

For the compound `[Fe]` [iron], the “increase in hemoglobin concentrations, effect size” value with children is recorded as 1.49.

zinc [zinc-alone]: in series [1], the “mean height for age Z-score” value was “decreased to a greater extent than placebo”.
